Experimental data: ChEMBL document CHEMBL1151767, “Lipidyl pseudopteranes A-F: isolation, biomimetic synthesis, and PTP1B inhibitory activity of a new class of pseudopteranoids from the Gorgonian Pseudopterogorgia acerosa” (J Nat Prod, 2008)
Active and inactive are the calls of the source. No cut-off for these calls is given here.

Assays:
[1] = molecular target: T1, Tyrosine-protein phosphatase non-receptor type 1 (Homo sapiens) (UniProt P18031); test: Inhibition of GST-tagged PTP1B at 100 ug/mL
T1 sequence (whole entry): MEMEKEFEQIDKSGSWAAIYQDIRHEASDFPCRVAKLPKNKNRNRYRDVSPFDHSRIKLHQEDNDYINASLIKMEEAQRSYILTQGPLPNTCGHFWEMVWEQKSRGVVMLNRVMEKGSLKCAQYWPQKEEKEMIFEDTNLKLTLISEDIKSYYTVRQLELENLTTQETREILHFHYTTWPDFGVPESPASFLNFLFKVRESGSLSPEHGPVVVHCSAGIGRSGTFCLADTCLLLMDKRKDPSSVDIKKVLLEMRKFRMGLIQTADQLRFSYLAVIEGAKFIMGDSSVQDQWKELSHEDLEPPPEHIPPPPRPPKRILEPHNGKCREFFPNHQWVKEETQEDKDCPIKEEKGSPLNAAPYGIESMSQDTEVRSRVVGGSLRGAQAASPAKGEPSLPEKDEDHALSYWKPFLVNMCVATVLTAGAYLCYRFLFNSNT

[2] = molecular target: Receptor-type tyrosine-protein phosphatase F (Homo sapiens) (UniProt P10586); test: Inhibition of GST-tagged PTP LAR at 100 ug/mL
Chain of Receptor-type tyrosine-protein phosphatase F (Homo sapiens) (P10586 whole entry): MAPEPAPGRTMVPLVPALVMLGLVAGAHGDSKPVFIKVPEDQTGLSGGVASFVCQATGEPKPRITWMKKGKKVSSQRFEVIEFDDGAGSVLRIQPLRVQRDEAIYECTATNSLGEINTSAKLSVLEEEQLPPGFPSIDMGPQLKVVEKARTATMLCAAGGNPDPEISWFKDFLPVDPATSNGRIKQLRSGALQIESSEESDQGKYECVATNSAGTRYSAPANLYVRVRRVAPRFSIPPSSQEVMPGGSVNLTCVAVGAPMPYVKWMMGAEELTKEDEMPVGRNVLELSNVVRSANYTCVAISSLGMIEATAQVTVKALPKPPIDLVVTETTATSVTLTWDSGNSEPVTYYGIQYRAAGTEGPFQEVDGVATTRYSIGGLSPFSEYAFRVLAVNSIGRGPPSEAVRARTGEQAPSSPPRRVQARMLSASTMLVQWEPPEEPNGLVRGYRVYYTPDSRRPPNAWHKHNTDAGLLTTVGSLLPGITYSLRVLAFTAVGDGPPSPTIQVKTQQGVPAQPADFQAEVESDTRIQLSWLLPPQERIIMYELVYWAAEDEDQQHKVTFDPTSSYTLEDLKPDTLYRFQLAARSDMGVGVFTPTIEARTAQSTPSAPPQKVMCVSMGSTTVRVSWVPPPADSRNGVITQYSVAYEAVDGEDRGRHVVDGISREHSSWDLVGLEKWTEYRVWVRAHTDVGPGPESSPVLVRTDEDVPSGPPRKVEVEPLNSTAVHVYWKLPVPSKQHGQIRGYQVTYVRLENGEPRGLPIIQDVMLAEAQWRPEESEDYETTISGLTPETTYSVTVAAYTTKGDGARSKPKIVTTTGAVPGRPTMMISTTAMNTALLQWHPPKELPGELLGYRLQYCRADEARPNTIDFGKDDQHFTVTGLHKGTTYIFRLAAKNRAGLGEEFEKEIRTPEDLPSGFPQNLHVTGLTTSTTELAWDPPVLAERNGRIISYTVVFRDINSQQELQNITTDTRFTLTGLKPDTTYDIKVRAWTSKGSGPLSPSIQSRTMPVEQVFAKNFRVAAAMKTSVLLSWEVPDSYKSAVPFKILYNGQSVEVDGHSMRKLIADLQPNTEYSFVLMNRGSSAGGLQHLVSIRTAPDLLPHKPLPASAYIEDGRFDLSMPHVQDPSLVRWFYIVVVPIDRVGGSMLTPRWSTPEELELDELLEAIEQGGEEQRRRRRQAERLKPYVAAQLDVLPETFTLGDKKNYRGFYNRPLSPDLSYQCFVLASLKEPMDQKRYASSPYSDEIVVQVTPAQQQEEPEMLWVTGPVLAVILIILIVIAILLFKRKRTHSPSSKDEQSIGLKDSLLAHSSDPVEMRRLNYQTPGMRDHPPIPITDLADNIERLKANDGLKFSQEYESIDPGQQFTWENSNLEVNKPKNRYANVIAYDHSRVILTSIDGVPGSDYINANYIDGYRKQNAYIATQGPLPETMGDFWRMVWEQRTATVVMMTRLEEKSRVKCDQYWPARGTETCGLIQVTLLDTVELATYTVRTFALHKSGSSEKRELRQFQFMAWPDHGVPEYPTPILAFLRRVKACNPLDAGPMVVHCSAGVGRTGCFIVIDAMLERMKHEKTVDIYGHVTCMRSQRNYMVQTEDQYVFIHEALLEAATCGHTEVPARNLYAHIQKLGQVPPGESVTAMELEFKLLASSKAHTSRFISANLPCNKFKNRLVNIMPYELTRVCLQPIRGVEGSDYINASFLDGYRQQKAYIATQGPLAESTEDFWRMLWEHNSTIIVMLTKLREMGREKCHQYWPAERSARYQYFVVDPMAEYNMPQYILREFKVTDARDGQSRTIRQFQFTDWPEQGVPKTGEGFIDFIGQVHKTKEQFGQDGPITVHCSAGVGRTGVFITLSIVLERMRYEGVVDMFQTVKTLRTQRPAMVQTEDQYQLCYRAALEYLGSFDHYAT

[3] = molecular target: Tyrosine-protein phosphatase non-receptor type 6 (Homo sapiens) (UniProt P29350); test: Inhibition of GST-tagged PTP SHP1 at 100 ug/mL
Chain of Tyrosine-protein phosphatase non-receptor type 6 (Homo sapiens) (P29350 whole entry): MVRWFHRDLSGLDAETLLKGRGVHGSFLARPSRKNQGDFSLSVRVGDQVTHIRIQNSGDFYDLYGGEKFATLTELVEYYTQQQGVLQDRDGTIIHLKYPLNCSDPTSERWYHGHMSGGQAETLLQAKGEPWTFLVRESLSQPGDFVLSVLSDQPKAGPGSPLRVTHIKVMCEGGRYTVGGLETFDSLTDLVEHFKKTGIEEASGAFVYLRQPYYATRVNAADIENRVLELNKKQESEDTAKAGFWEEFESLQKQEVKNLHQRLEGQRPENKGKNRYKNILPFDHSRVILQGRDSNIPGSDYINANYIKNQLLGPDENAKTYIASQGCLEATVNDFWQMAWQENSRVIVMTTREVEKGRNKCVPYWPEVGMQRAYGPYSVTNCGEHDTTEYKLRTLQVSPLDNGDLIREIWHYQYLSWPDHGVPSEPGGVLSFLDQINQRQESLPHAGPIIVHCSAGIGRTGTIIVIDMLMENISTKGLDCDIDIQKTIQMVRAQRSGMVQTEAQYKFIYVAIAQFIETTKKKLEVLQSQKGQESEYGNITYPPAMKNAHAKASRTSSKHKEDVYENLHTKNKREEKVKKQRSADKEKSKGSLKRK

[4] = molecular target: T2, Dual specificity protein phosphatase 22 (Homo sapiens) (UniProt Q9NRW4); test: Inhibition of GST-tagged PTP MKPX at 100 ug/mL
T2 sequence (whole entry): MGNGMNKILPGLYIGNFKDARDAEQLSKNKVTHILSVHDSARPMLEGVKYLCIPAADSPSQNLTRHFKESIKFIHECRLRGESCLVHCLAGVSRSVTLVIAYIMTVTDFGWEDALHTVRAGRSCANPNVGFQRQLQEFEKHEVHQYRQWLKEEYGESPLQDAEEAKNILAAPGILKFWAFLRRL

[5] = molecular target: T3, Tyrosine-protein phosphatase non-receptor type 1 (Homo sapiens, UniProt P18031); test: Inhibition of GST-tagged PTP1B
T3 sequence (P18031 whole entry): T1 sequence (whole entry)

SMILES | Activity [1] | Activity [2] | Activity [3] | Activity [4] | IC50 [5]
C=C(C)[C@H]1CC2=C(C(=O)OC)C=C(O2)[C@H](C(=C)C)[C@H]2C=C(C(=O)O2)C(OC(=O)CCCCCCCCCCCCCCC)C1 (some centres undefined) | Active | inactive | inactive | inactive | 
C=C(C)[C@H]1C2=CC(C(=O)OC)=C(C[C@H](C(=C)C)[C@@H](O)C(OC(=O)CCCCCCCCCCCCCCC)C3=C[C@H]1OC3=O)O2 (single isomer, unassigned) [LIPIDYL PSEUDOPTERANE A] | Active | inactive | inactive | inactive | 113 µM
